This test has as its system test plant species. In words: Post-emergent herbicidal activity test (greenhouse, foliar spray, visual growth reduction). It counts as in vivo. Conditions: post-emergence, 336 h, 140 g ai/ha. In short, it runs like this:
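Visual percent injury (0-100) rated 14 d after treatment, relative to nontreated and solvent-blank plants. Test plants at first or second true leaf stage received an overhead track-sprayer application at 187 L/ha. Compounds were formulated in aqueous acetone/DMSO carrier containing crop oil concentrate and X-77 surfactant.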

[1] abbreviates: ECHCG: barnyardgrass (Echinochloa crus-galli), 14 days after application, read-out: Visual Growth Reduction (%) 14 Days After Application, ECHCG.
[2] abbreviates: IPOHE: ivy-leaf morning glory (Ipomoea hederacea), 14 days after application, read-out: Visual Growth Reduction (%) 14 Days After Application, IPOHE.
Setting [3] is: KCHSC: kochia (Bassia scoparia), 14 days after application, read-out: Visual Growth Reduction (%) 14 Days After Application, KCHSC.
The mark [4] stands for this setting: ORYSA: rice (Oryza sativa), 14 days after application, read-out: Visual Growth Reduction (%) 14 Days After Application, ORYSA.
Setting [5] is: SETFA: giant foxtail (Setaria faberi), 14 days after application, read-out: Visual Growth Reduction (%) 14 Days After Application, SETFA.
Where [6] appears, read: SORVU: grain sorghum (Sorghum vulgare), 14 days after application, read-out: Visual Growth Reduction (%) 14 Days After Application, SORVU.
[7] abbreviates: STEME: common chickweed (Stellaria media), 14 days after application, read-out: Visual Growth Reduction (%) 14 Days After Application, STEME.
The mark [8] stands for this setting: TRZAS: wheat, spring (Triticum aestivum), 14 days after application, read-out: Visual Growth Reduction (%) 14 Days After Application, TRZAS.
Where [9] appears, read: blackgrass (Alopecurus myosuroides), 14 Days After Application, read-out: Visual Growth Reduction (%) ALOMY.
Where [10] appears, read: canada thistle (Cirsium arvense), 14 Days After Application, read-out: Visual Growth Reduction (%) CIRAR.
Setting [11] is: crabgrass (Digitaria sanguinalis), 14 Days After Application, read-out: Visual Growth Reduction (%) DIGSA.
[12] abbreviates: lambsquarters (Chenopodium album), 14 Days After Application, read-out: Visual Growth Reduction (%) CHEAL.
The mark [13] stands for this setting: redroot pigweed (Amaranthus retroflexus), 14 Days After Application, read-out: Visual Growth Reduction (%) AMARE.
The mark [14] stands for this setting: wild oat (Avena fatua), 14 Days After Application, read-out: Visual Growth Reduction (%) AVEFA.
Where [15] appears, read: yellow nutsedge (Cyperus esculentus), 14 Days After Application, read-out: Visual Growth Reduction (%) CYPES.

Like-named read-outs stand apart in the source and are kept apart here.

Regarding `COC(=O)c1nc(-c2cccc3c2OC(F)(F)O3)ccc1Cl` [F242, Methyl 3-chloro-6-(2,2-difluorobenzo[d][1,3]dioxol-4-yl)picolinate], the pest or weed control at 140 g/ha was in the range of 0 to 29% under setting [1]; 0 to 29% under setting [2]; 0 to 29% under setting [3]; 0 to 29% under setting [4]; 0 to 29% under setting [5]; 75 to 84% under setting [6]. Moreover, the pest or weed control at 140 g/ha reads like this: under setting [7], 0 to 29%; under setting [8], 0 to 29%; under setting [9], 0 to 29%; under setting [10], 0 to 29%; under setting [11], 0 to 29%; under setting [12], 60 to 74%. In addition, the pest or weed control at 140 g/ha under setting [13] lay within 0 to 29%, the pest or weed control at 140 g/ha under setting [14] lay in the range of 0 to 29% and the pest or weed control at 140 g/ha under setting [15] lay within 0 to 29%.

For `COC(=O)c1nc(-c2cc(F)c(C(F)(F)F)cc2Cl)ccc1Cl` [F243, Methyl 3-chloro-6-(2-chloro-5-fluoro-4-(trifluoromethyl)phenyl)picolinate], the pest or weed control at 140 g/ha reads like this: under setting [1], 95 to 100%; under setting [2], 95 to 100%; under setting [3], 75 to 84%; under setting [4], 0 to 29%; under setting [5], 95 to 100%; under setting [6], 95 to 100%. Further, the pest or weed control at 140 g/ha fell in the range of 0 to 29% under setting [7]; 85 to 94% under setting [8]; 85 to 94% under setting [9]; 95 to 100% under setting [10]; 95 to 100% under setting [11]; 95 to 100% under setting [12]. Besides, the pest or weed control at 140 g/ha is, setting by setting: under setting [13], 95 to 100%; under setting [14], 75 to 84%; under setting [15], 85 to 94%.

In the case of `COC(=O)c1cc2c(c(-c3nc(C(=O)OC)c(Cl)cc3F)c1)OC(F)(F)O2` [F244, Methyl 3-chloro-6-(2,2-difluoro-6-(methoxycarbonyl)benzo[d][1,3]dioxol-4-yl)-5-fluoropicolinate], the pest or weed control at 140 g/ha is, setting by setting: under setting [1], 0 to 29%; under setting [2], 0 to 29%; under setting [3], 0 to 29%; under setting [4], 0 to 29%; under setting [5], 0 to 29%; under setting [6], 0 to 29%. The pest or weed control at 140 g/ha under setting [7] lay in the range of 0 to 29%; the pest or weed control at 140 g/ha under setting [8] was in the range of 0 to 29%; the pest or weed control at 140 g/ha under setting [9] was in the range of 0 to 29%; the pest or weed control at 140 g/ha under setting [10] lay within 0 to 29%; the pest or weed control at 140 g/ha under setting [11] fell in the range of 0 to 29%; the pest or weed control at 140 g/ha under setting [12] was in the range of 60 to 74%. In addition, the pest or weed control at 140 g/ha by setting is: under setting [13], 0 to 29%; under setting [14], 0 to 29%; under setting [15], 0 to 29%.

As for `COC(=O)c1cc2c(c(-c3ccc(Cl)c(C(=O)OC)n3)c1)OC(F)(F)O2` [F245, Methyl 3-chloro-6-(2,2-difluoro-6-(methoxycarbonyl)benzo[d][1,3]dioxol-4-yl)picolinate], the pest or weed control at 140 g/ha runs as follows: under setting [1], 0 to 29%; under setting [2], 85 to 94%; under setting [3], 0 to 29%; under setting [4], 0 to 29%; under setting [5], 0 to 29%; under setting [6], 75 to 84%. The pest or weed control at 140 g/ha is, setting by setting: under setting [7], 0 to 29%; under setting [8], 0 to 29%; under setting [9], 0 to 29%; under setting [10], 0 to 29%; under setting [11], 0 to 29%; under setting [12], 85 to 94%. The pest or weed control at 140 g/ha is, setting by setting: under setting [13], 0 to 29%; under setting [14], 0 to 29%; under setting [15], 45 to 59%.

For the origin of these results see patent US20230017045A1, “PYRIDINE AND PYRIMIDINE CARBOXYLATE HERBICIDES AND METHODS OF USE THEREOF” (Dow AgroSciences LLC, priority 2017, published 2023).
